Measured values published in publication doi:10.1101/2024.09.09.611999v1 (biorxiv, 2024).
Where a chain is given by its changes, count along the chain named. Like-named read-outs stand apart in the source and are kept apart here.

What was measured:
[1] = target: T1, overexpressed PRDX6 (Homo sapiens, UniProt P30041); test: H2O2 clearance; assay type: cell-based
T1 sequence (P30041 2-224): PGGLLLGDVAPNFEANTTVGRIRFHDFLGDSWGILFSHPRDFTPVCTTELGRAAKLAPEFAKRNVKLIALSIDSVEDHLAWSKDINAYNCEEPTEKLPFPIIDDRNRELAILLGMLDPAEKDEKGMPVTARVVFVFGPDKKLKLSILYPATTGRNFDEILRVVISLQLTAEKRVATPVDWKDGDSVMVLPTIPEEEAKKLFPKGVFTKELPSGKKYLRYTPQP

[2] = target: T2, PRDX6 with GFP tag (Homo sapiens, UniProt P30041, E210A); test: cellular microscale thermophoresis, GFP fusion
T2 sequence (P30041 2-224 E210A): T1 sequence (P30041 2-224) with E209A

[3] = target: T3, PRDX6 with GFP tag (Homo sapiens, UniProt P30041, C91A); test: cellular microscale thermophoresis, GFP fusion
T3 sequence (P30041 2-224 C91A): T1 sequence (P30041 2-224) with C90A

## CC(=O)N[C@@H](CS)C(=O)O [NAC, reference compound]
[1]; substrate H2O2
  IC50: 15.5 µM

## O=c1cc(-c2ccc(O)cc2)oc2cc(O)cc(O)c12 [apigenin, 4’,5,7-trihydroxyflavone]
[1]
  IC50: 49.5 µM
[2]
  Kd: 14.5 µM
[3]
  Kd: 10.9 µM
